The structures appear in SMILES notation.

The target of one data set is T1, hα7-wt nAChR (Homo sapiens, UniProt P36544).
T1 construct: expressed in transfected cells
Put plainly: Ca2+ flux imaging (FDSS) (Protocol B), PAM activity with choline as agonist. Type of data set: cell-based. The settings on record: for EC50: "<5" = no top plateau at maximal concentration; for Emax: read-out: % efficacy. The procedure, abridged:
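Cells stably expressing human wild-type α7 nAChR, loaded with fluo-4AM (2 μM final) up to 120 min in HBSS/10 mM HEPES/5 mM CaCl2/0.1% BSA with 5 mM probenecid. Compounds (0.01–30 μM) added up to 10 min before 100 μM choline; peak fluorescence read on FDSS, potentiation expressed relative to choline-alone response (100%).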
A general note: Calcium assays in cells follow changes in intracellular calcium, usually with a dye or a luminescent sensor.

T1 sequence (P36544 23-502): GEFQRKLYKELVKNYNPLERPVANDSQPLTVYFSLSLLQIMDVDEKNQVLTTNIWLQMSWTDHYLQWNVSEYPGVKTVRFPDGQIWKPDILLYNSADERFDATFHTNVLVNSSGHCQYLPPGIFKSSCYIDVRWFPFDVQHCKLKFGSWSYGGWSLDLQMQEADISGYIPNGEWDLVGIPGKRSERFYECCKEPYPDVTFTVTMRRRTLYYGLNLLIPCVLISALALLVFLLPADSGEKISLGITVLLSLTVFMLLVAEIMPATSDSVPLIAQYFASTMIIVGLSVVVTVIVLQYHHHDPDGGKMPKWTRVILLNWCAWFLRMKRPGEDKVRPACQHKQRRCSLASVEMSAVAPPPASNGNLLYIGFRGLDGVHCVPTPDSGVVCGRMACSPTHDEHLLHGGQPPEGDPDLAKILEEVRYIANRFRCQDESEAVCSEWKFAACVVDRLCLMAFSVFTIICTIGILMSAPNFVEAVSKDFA

As to `CC(C)NC(=O)Cn1nc(Nc2cccc(OC(F)(F)F)c2)nc1-c1ccc2c(c1)OCCN2C` [Compound 160], the melting point – broadly, the temperature, or range, at which the solid turns liquid – was 153.3 °C. Also, the EC50 – broadly, the concentration at which the effect is half-maximal – on hα7-wt nAChR is 126 nM.
`COc1cccc(-c2nc(Nc3cccc(OC(F)(F)F)c3)nn2CC(=O)NC2CC2)c1` [Compound 162]: the melting point was in the range of 196.5 to 206.2 °C. Moreover, the EC50 on hα7-wt nAChR was 79.4 nM.
`COc1ccc(-c2nc(Nc3cccc(OC(F)(F)F)c3)nn2CC(=O)NC2CC2)cc1OC` [Compound 163]: the melting point is 192.7 to 195.3 °C. Further, the EC50 at hα7-wt nAChR was 631 nM.
Molecule `Cc1cc(-c2nc(Nc3cccc(OC(F)(F)F)c3)nn2CC(=O)NC2CC2)ccn1` [Compound 164] registered a melting point of 190.7 °C. Besides, the EC50 at hα7-wt nAChR is 2000 nM.
Regarding `CN1CCOc2cc(-c3nc(Nc4cccc(OC(F)(F)F)c4)nn3CC(=O)NC3CC3)ccc21` [Compound 165], the melting point worked out at 168 °C. For the same molecule, at hα7-wt nAChR, the 50% effective concentration (EC50) is 158 nM.
`CC1(NC(=O)Cn2nc(Nc3cccc(OC(F)(F)F)c3)nc2-c2ccc3c(c2)OCCO3)CC1` [Compound 166] had a melting point of 219.3 °C. Moreover, the 50% effective concentration (EC50) at hα7-wt nAChR is 200 nM.
For the molecule `CN(C)C(=O)CCn1nc(Nc2cccc(OC(F)(F)F)c2)nc1-c1ccc(N)c(F)c1` [Compound 167], the melting point is 157.1 °C. Also, the concentration for a half-maximal effect (EC50) on hα7-wt nAChR is 398 nM.
As for `CN(C)C(=O)CCn1nc(Nc2cccc(OC(F)(F)F)c2)nc1-c1ccncc1` [Compound 168], the melting point was found to be 178.4 °C. Besides, at hα7-wt nAChR, the half-maximal effective concentration (EC50) was 501 nM.
`CC(C)c1ccc(-c2nc(Nc3ccc(F)cc3)nn2CCO)cn1` [Compound 169] gave a melting point of 135.1 °C. Also, on hα7-wt nAChR, the concentration for a half-maximal effect (EC50) was 3160 nM and the Emax turned out to be 762%.
Molecule `CCOc1ccc(-c2nc(Nc3ccc(F)cc3)nn2CCO)cn1` [Compound 170] gave a melting point of 162.2 °C. Besides, the concentration giving a half-maximal response (EC50) at hα7-wt nAChR was > 10000 nM.
On the same counts, the results for `OCCn1nc(Nc2ccc(F)cc2)nc1-c1ccc(C2CC2)nc1` [Compound 171] are 169.8 °C and 2510 nM.
As for `Cc1cc(-c2nc(Nc3cc(F)c(F)c(F)c3)nn2C[C@H](C)O)cc(Cl)n1` [Compound 172], the melting point worked out at 200 °C. At hα7-wt nAChR, the EC50 is 794 nM and the Emax was determined as 812%.
Consider `C[C@H](O)Cn1nc(Nc2ccc(F)c(F)c2)nc1-c1ccc(C(=O)N2CCCC2)nc1` [Compound 174], for which the melting point was determined as 181.7 °C. Moreover, at hα7-wt nAChR, the concentration for a half-maximal effect (EC50) was > 10000 nM and the Emax was 667%.
With `CNC(=O)Cn1nc(Nc2cc(F)cc(F)c2)nc1-c1ccnc(C2CC2)c1` [Compound 179], the melting point came to 222.4 °C. Also, on hα7-wt nAChR, the 50% effective concentration (EC50) was 3160 nM.
As for `CCNC(=O)Cn1nc(Nc2cc(F)c(F)c(F)c2)nc1-c1ccnc(NCC)c1` [Compound 180], the melting point came out at 259.6 °C. Also, the EC50 on hα7-wt nAChR was 158 nM.
On the same counts, the results for `CCNC(=O)Cn1nc(Nc2cc(F)c(F)c(NCC)c2)nc1-c1ccnc(NCC)c1` [Compound 181] are 192.8 °C and 794 nM.
`Cc1cc(-c2nc(Nc3ccc(F)c(C)c3)nn2CCC(=O)N(C)C)ccn1` [Compound 184]: the melting point was 158.8 °C. For the same molecule, on hα7-wt nAChR, the EC50 was 794 nM.
`Cc1cc(-c2nc(Nc3ccc(F)c(F)c3)nn2CCC(=O)N(C)C)ccn1` [Compound 185] displayed a melting point of 181.3 °C. For the same molecule, on hα7-wt nAChR, the EC50 is 1000 nM.
As for `Cc1cc(-c2nc(Nc3ccc(F)c(C#N)c3)nn2CCC(=O)N(C)C)ccn1` [Compound 186], the melting point was determined as 203.9 °C. On hα7-wt nAChR, the EC50 was 398 nM.
On the same counts, the results for `COc1cc(Nc2nc(-c3ccnc(C)c3)n(CCC(=O)N(C)C)n2)ccc1F` [Compound 187] are 137.3 °C and 3980 nM.
`COc1cc(Nc2nc(-c3ccnc(C)c3)n(CCC(=O)N(C)C)n2)cc(F)c1F` [Compound 188] displayed a melting point of 199.8 °C. The EC50 at hα7-wt nAChR is 794 nM.
